According to article PMC6627609, “Targeting Quorum Sensing: High-Throughput Screening to Identify Novel LsrK Inhibitors” (International Journal of Molecular Sciences, 2019):
Where a name gives a salt, the structure may show the parent alone.

Target: LsrK (Salmonella typhimurium, UniProt Q8ZKQ6)
Test: biochemical
Type: biochemical, S. typhimurium
Details: not given

Chain of LsrK (Q8ZKQ6 whole entry): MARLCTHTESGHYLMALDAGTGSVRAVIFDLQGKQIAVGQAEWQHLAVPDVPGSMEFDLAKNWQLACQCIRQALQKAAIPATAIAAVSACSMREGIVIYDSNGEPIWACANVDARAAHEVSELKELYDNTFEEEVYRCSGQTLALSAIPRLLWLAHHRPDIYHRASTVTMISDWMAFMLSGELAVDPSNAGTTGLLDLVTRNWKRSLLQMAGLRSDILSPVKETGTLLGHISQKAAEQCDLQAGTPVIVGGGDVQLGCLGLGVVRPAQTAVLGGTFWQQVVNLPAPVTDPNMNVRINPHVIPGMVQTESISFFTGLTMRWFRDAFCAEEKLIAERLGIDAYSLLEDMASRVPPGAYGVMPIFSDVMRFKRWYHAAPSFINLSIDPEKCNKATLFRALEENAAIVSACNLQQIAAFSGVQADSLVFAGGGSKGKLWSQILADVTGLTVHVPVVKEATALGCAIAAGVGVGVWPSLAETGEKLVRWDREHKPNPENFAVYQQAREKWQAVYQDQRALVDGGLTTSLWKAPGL

Row | Structure (SMILES) | inhibition at 50 µM [%]
1 | CO/N=C1\CN(c2nc3c(cc2F)c(=O)c(C(=O)O)cn3C2CC2)CC1CN (centres unmarked) [GEMIFLOXACIN MESYLATE] | 0
2 | O=c1c(-c2ccc(O)cc2)coc2cc(O)cc(O)c12 [GENISTEIN] | 2
3 | CN(C)c1ccc(C(=C2C=CC(=[N+](C)C)C=C2)c2ccc(N(C)C)cc2)cc1 [GENTIAN VIOLET] | 11
4 | Cc1ccc(S(=O)(=O)NC(=O)NN2CC3CCCC3C2)cc1 (centres unmarked) [GLICLAZIDE] | 1
5 | Cc1cnc(C(=O)NCCc2ccc(S(=O)(=O)NC(=O)NC3CCCCC3)cc2)cn1 [GLIPIZIDE] | 1
6 | O=C1O[C@H](CO)[C@@H](O)[C@H](O)[C@H]1O [GLUCONOLACTONE] | 0
7 | N[C@H]1C(O)O[C@H](CO)[C@@H](O)[C@@H]1O (some centres unmarked) [GLUCOSAMINE HYDROCHLORIDE] | 1
8 | N[C@@H](CCC(=O)N[C@@H](CS)C(=O)NCC(=O)O)C(=O)O [GLUTATHIONE] | 1
9 | C[C@H](CCC(=O)NCC(=O)O)[C@H]1CC[C@H]2[C@@H]3[C@H](O)C[C@@H]4C[C@H](O)CC[C@]4(C)[C@H]3C[C@H](O)[C@]12C [GLYCOCHOLIC ACID] | 1
10 | C[N+]1(C)CCC(OC(=O)C(O)(c2ccccc2)C2CCCC2)C1 (centres unmarked) [GLYCOPYRROLATE] | 0
11 | N[C@@H](C(=O)O)[C@@H](O)[C@H](O)[C@H](O)CO [GL[…]] | 1
12 | O=c1c(O)c(-c2ccc(O)c(O)c2)oc2c(O)c(O)cc(O)c12 [GOSSYPETIN] | 115
13 | Cc1cc2c(C(C)C)c(O)c(O)c(C=O)c2c(O)c1-c1c(C)cc2c(C(C)C)c(O)c(O)c(C=O)c2c1O [GOSSYPOL] | 83
14 | COC1=CC(=O)C[C@@H](C)[C@]12Oc1c(Cl)c(OC)cc(OC)c1C2=O [GRISEOFULVIN] | 1
15 | COc1ccccc1OCC(O)CO (centres unmarked) [GUAIFENESIN] | 0
16 | N=C(N)N/N=C/c1c(Cl)cccc1Cl [GUANABENZ ACETATE] | 0
17 | CC1=C(CCC(=O)O)c2cc3[nH]c(cc4nc(cc5[nH]c(cc1n2)c(C)c5C(C)O)C(C)=C4C(C)O)c(C)c3CCC(=O)O (centres unmarked) [HAEMATOPORPHYRIN] | 55
18 | CC1(C)O[C@@H]2C[C@H]3[C@@H]4CCC5=CC(=O)CC[C@]5(C)[C@@]4(F)[C@@H](O)C[C@]3(C)[C@]2(C(=O)CCl)O1 [HALCINONIDE] | 0
19 | CC1=NCCc2c1[nH]c1cc(O)ccc21 [HARMALOL HYDROCHLORIDE] | 4
20 | Cc1nccc2c1[nH]c1cc(O)ccc12 [HARMOL HYDROCHLORIDE] | 3
21 | C=C1C(=O)O[C@@H]2C[C@@]3(C)CCC[C@H](C)C3=C[C@H]12 [HELENINE] | 2
22 | O=C1C=C2CC3(O)COc4c(ccc(O)c4O)C3=C2C=C1O (centres unmarked) [HEMATEIN] | 107
23 | COc1ccc([C@@H]2CC(=O)c3c(O)cc(O)cc3O2)cc1O [HESPERETIN] | 0
24 | COc1cc(O)c2c(=O)cc(C)oc2c1CC=C(C)C [HETEROPEUCENIN. METHYL ETHER] | 1
25 | Oc1c(Cl)cc(Cl)c(Cl)c1Cc1c(O)c(Cl)cc(Cl)c1Cl [HEXACHLOROPHENE] | 112
26 | C[N+](C)(C)CCCCCC[N+](C)(C)C [HEXAMETHONIUM BROMIDE] | 2

Row | Structure (SMILES) | inhibition at 50 µM [%]
27 | CC[C@H](c1ccc(O)cc1)[C@@H](CC)c1ccc(O)cc1 [HEXESTROL] | 3
28 | CCCCCCc1ccc(O)cc1O [HEXYLRESORCINOL] | 0
29 | NCCc1c[nH]cn1 [HISTAMINE DIHYDROCHLORIDE] | 3
30 | C[N+]1(C)[C@@H]2CC[C@H]1C[C@@H](OC(=O)C(O)c1ccccc1)C2 (some centres unmarked) [HOMATROPINE METHYLBROMIDE] | 0
31 | CC[n+]1c(-c2ccccc2)c2cc(N)ccc2c2ccc(N)cc21 [HOMIDIUM BROMIDE] | 72
32 | CCN(CC)CCNc1ccc(CO)c2sc3ccccc3c(=O)c12 [HYCANTHONE] | 1
33 | Oc1ccc(O)cc1 [HYDROQUINONE] | 0
34 | CCCCCC(=O)O[C@]1(C(C)=O)CC[C@H]2[C@@H]3CCC4=CC(=O)CC[C@]4(C)[C@H]3CC[C@@]21C [HYDROXYPROGESTERONE CAPROATE] | 3
35 | Cc1cccc(C(=O)O)c1O [HYDROXYTOLUIC ACID] | 1
36 | OCCOCCN1CCN(C(c2ccccc2)c2ccc(Cl)cc2)CC1 (centres unmarked) [HYDROXYZINE PAMOATE] | 125
37 | O=c1[nH]cnc2nc[nH]c12 [HYPOXANTHINE] | 2
38 | COc1ccc2c(C)cc(=O)oc2c1 [H[…] ETHER] | 0
39 | Cc1cc(O)c(C=O)c(O)c1C(=O)O [H[…]] | 1
40 | COc1ccc(-c2oc3c(CC=C(C)C)c(O[C@@H]4O[C@H](CO)[C@@H](O)[C@H](O)[C@H]4O)cc(O)c3c(=O)c2O[C@@H]2O[C@@H](C)[C@H](O)[C@@H](O)[C@H]2O)cc1 [ICARIIN] | 36
41 | CC(C)[N+]1(C)[C@@H]2CC[C@H]1C[C@@H](OC(=O)C(CO)c1ccccc1)C2 (some centres unmarked) [IPRATROPIUM BROMIDE] | 0
42 | CC(C)Oc1ccc2c(=O)c(-c3ccccc3)coc2c1 [IPRIFLAVONE] | 2
43 | CCCCC1=NC2(CCCC2)C(=O)N1Cc1ccc(-c2ccccc2-c2nnn[nH]2)cc1 [IRBESARTAN] | 10
44 | COc1c(O)cc(O)cc1O [IRETOL] | 1
45 | COc1cc(-c2coc3cc(O[C@@H]4O[C@H](CO)[C@@H](O)[C@H](O)[C@H]4O)c(OC)c(O)c3c2=O)cc(O)c1OC [IRIDIN] | 1
46 | O=c1c(-c2cc(O)c(O)c(O)c2)coc2cc(O)c(O)c(O)c12 [IRIGENOL] | 90
47 | CC(=O)Oc1cc(-c2coc3cc(OC(C)=O)c(OC(C)=O)c(OC(C)=O)c3c2=O)cc(OC(C)=O)c1OC(C)=O [IRIGINOL HEXAACEATATE] | 114
48 | CC(C)Nc1ncccn1 [ISAXONINE] | 0
49 | CCC(NC(C)C)C(O)c1ccc(O)c(O)c1 (centres unmarked) [ISOETHARINE MESYLATE] | 2
50 | C=C1CCC2C(CC2(C)C)C(=O)CCC1O (centres unmarked) [ISOKOBUSONE] | 3
51 | C/C=C/c1ccc2c(c1)OCO2 [ISOSAFROLE] | 1
52 | O=[N+]([O-])O[C@@H]1CO[C@H]2[C@@H]1OC[C@@H]2O [ISOSORBIDE MONONITRATE] | 0

Same assay, conditions: 50 µM

Row | Structure (SMILES) | Inhibition (%)
53 | NC(=O)CC[C@H](N)C(=O)O [GLUTAMINE (L)] | 0
54 | O=c1c(O)c(-c2ccc(O)c(O)c2)oc2c(O[C@@H]3O[C@H](CO)[C@@H](O)[C@H](O)[C@H]3O)c(O)cc(O)c12 [GOSSYPIN] | 57
55 | C[N+]1(C)CCOC(O)(c2ccc(-c3ccc(C4(O)C[N+](C)(C)CCO4)cc3)cc2)C1.[Br-].[Br-] (centres unmarked) [HEMICHOLINIUM BROMIDE] | 1
56 | COc1ccc([C@@H]2CC(=O)c3c(O)cc(O[C@@H]4O[C@H](CO[C@@H]5O[C@@H](C)[C@H](O)[C@@H](O)[C@H]5O)[C@@H](O)[C@H](O)[C@H]4O)cc3O2)cc1O [HESPERIDIN] | 1
57 | CCC(Cc1c(I)cc(I)c(N)c1I)C(=O)O (centres unmarked) [IOPANIC ACID] | 16
58 | COc1cc(-c2coc3cc(OCc4ccccc4)c(OC)c(O)c3c2=O)cc(O)c1OC [IRIGENIN. 7-BENZYL ETHER] | 2
59 | CC1=C(/C=C/C(C)=C/C=C/C(C)=C\C(=O)O)C(C)(C)CCC1 [ISOTRETINON] | 1
